In ChEMBL document CHEMBL2380251, “Antiproliferative activity of 2,3-disubstituted indoles toward apoptosis-resistant cancers cells” (2013) one finds GI50 and Activity data, which are given here for 32 compounds.

One assay deals with Hs 683. As to the kind of experiment: Growth inhibition of apoptosis-sensitive human Hs 683 cells after 72 hrs by MTT assay. It counts as functional. As to conditions: Hs 683, 72 h.
The nature of assay [1]: Growth inhibition of apoptosis-resistance human U373 cells after 72 hrs by MTT assay. It counts as functional, U-373MG ATCC. As to conditions: U373 MG. In general terms: Formazan colour is commonly taken as a measure of viable cells.
For assay [2], the system named is SK-MEL-28. As to the kind of experiment: Growth inhibition of apoptosis-resistance human SK-MEL-28 cells after 72 hrs by MTT assay. The format is functional. As to conditions: SK-MEL-28, 72 h.
A further assay has as its system B16-F10. As to the kind of experiment: Growth inhibition of apoptosis-resistance mouse B16F10 cells after 72 hrs by MTT assay. The format is functional. As to conditions: B16-F10, 72 h.
The test system of assay [3] is A549. As to the kind of experiment: Growth inhibition of apoptosis-resistance human A549 cells after 72 hrs by MTT assay. It counts as functional. As to conditions: A549, 72 h.
In assay [4] the test system is A549. As to the kind of experiment: Induction of membrane permeabilization in apoptosis-resistance human A549 cells at GI50 after 72 hrs by propidium iodide staining-based flow cytometric analysis. The format is functional, cell-based. (In general: Flow cytometry measures light scatter and fluorescence of single cells or particles in a stream.)
The test system of assay [5] is SK-MEL-28. As to the kind of experiment: Cytostatic activity against apoptosis-resistance human SK-MEL-28 cells assessed as cell growth at GI50 after 72 hrs by phase contrast microscopic analysis relative to control. It counts as functional.
Assay [6] has as its system A549. As to the kind of experiment: Cytostatic activity against apoptosis-resistance human A549 cells assessed as cell growth at GI50 after 72 hrs by phase contrast microscopic analysis relative to control. It counts as functional.
Assay [7] deals with A549. As to the kind of experiment: Induction of apoptosis in apoptosis-resistance human A549 cells at GI50 after 72 hrs by phase contrast microscopic analysis. It counts as functional, cell-based.
In assay [8] the test system is SK-MEL-28. As to the kind of experiment: Induction of membrane permeabilization in apoptosis-resistance human SK-MEL-28 cells at GI50 after 72 hrs by propidium iodide staining-based flow cytometric analysis. The format is functional, cell-based.
Assay [9] relates to SK-MEL-28. As to the kind of experiment: Induction of apoptosis in apoptosis-resistance human SK-MEL-28 cells at GI50 after 72 hrs by phase contrast microscopic analysis. It counts as functional, cell-based.

The source made the active and inactive calls. The rule behind the calls is not given here.

A word on the GI50: it is the concentration at which growth is held to half of that of the control. A lower GI50 goes with more potent growth inhibition. Regarding `Cc1onc(-c2c(F)cccc2Cl)c1C(=O)Nc1c(-c2ccccc2)[nH]c2ccccc12`, the GI50 with Hs 683 was found to be 15 µM; in assay [1], 24 µM; with SK-MEL-28 [2], 13 µM; in the assay on B16-F10, 22 µM; in the assay on A549 [3], 9 µM.
In the case of `Cc1ccc2[nH]c(-c3ccc(Cl)cc3)c(-n3nc(C)cc3C)c2c1`, the GI50 in the assay with Hs 683 amounted to 50 µM; in assay [1], 43 µM; in the assay with SK-MEL-28 [2], 46 µM; in the assay on B16-F10, 65 µM; with A549 [3], 42 µM.
On the same counts, the results for `O=C(Nc1c(-c2ccccc2)[nH]c2ccc(Cl)cc12)c1cc2ccccc2oc1=O` are 45 µM, 66 µM, 55 µM, 27 µM and 37 µM.
The corresponding values for `CCN(CC)C(=S)Sc1c(-c2ccccc2)[nH]c2ccc(Br)cc12` are 26 µM, 36 µM, 28 µM, 40 µM and 31 µM.
On the same counts, the results for `Clc1ccc(Oc2c(-c3ccc(Cl)cc3)[nH]c3ccc(Br)cc23)cc1` are 26 µM, 35 µM, 28 µM, 29 µM and 30 µM.
For `S=C(Sc1c(-c2ccc(Br)cc2)[nH]c2ccccc12)N1CCOCC1`, the 50% growth inhibitory concentration (GI50) in the assay with Hs 683 was determined as 32 µM; in assay [1] it was 43 µM; with SK-MEL-28 [2], 35 µM; with B16-F10, 20 µM; in the assay with A549 [3], 31 µM.
The corresponding values for `Clc1ccc(Oc2c(-c3ccc(Cl)cc3)[nH]c3ccc(Cl)cc23)cc1` are 13 µM, 13 µM, 19 µM, 10 µM and 10 µM.
For the compound `Clc1ccc(Sc2c(-c3ccc(Br)cc3)[nH]c3ccccc23)cc1`, the GI50 in the assay on Hs 683 amounted to 25 µM; in assay [1] it was 24 µM; in the assay with SK-MEL-28 [2], 26 µM; in the assay with B16-F10, 35 µM; with A549 [3], 26 µM.
For `Clc1ccc(Oc2c(-c3ccc(Cl)cc3)[nH]c3ccccc23)cc1`, the GI50 in the assay on Hs 683 was 28 µM; in assay [1], 25 µM; in the assay with SK-MEL-28 [2], 28 µM; in the assay on B16-F10 it was 29 µM; in the assay on A549 [3], 25 µM.
As to `CCOC(=O)c1ccc2[nH]c(-c3ccc(Cl)cc3)c(Oc3ccc(Cl)cc3)c2c1`, the concentration for 50% growth inhibition (GI50) in the assay on Hs 683 is 24 µM; in assay [1] it was 35 µM; with SK-MEL-28 [2], 28 µM; in the assay with B16-F10, 20 µM; with A549 [3], 28 µM.
Turning to `Clc1ccc(/N=N/c2c(-c3ccc(Br)cc3)[nH]c3ccccc23)cc1`, the GI50 in the assay on Hs 683 turned out to be 31 µM; in assay [1], 33 µM; with SK-MEL-28 [2], 33 µM; with B16-F10, 33 µM; in the assay with A549 [3] it was 26 µM.
For `CCOC(=O)C1CCN(C(=S)Sc2c(-c3ccc(Br)cc3)[nH]c3ccccc23)CC1`, the GI50 in the assay with Hs 683 is 36 µM; in assay [1], 35 µM; with SK-MEL-28 [2], 36 µM; with B16-F10, 27 µM; in the assay on A549 [3], 34 µM.
With `Clc1ccc(Sc2c(-c3ccc(Cl)cc3)[nH]c3ccccc23)cc1`, the result with A549 [4], with A549 [7], in the assay on SK-MEL-28 [8] and in the assay on SK-MEL-28 [9] was inactive. In addition, the GI50 in the assay on Hs 683 is 31 µM; in assay [1], 28 µM; in the assay with SK-MEL-28 [2], 34 µM; in the assay with B16-F10, 28 µM; in the assay on A549 [3], 27 µM. Also, the Activity in the assay with SK-MEL-28 [5] is 10%; in the assay on A549 [6], 30%.
As for `Cc1cc(C)n(-c2c(-c3ccccc3)[nH]c3ccccc23)n1`, the GI50 in the assay with Hs 683 is 67 µM; in [1], 84 µM; in the assay with SK-MEL-28 [2] it was 84 µM; in the assay on B16-F10, over 100 µM; in the assay on A549 [3] it was 61 µM.
As to `CCOC(=O)C1CCN(C(=S)Sc2c(-c3ccc(Br)cc3)n(C)c3ccccc23)CC1`, the GI50 is 85 µM with Hs 683; over 100 µM in assay [1]; 78 µM in the assay on SK-MEL-28 [2]; 50 µM with B16-F10; 72 µM in the assay with A549 [3].
On the same counts, the results for `CCN(CC)C(=S)Sc1c(-c2ccc(Br)cc2)[nH]c2ccc(Br)cc12` are 22 µM, 9 µM, 29 µM, 33 µM and 22 µM.
Consider `CCOC(=O)C1CCN(C(=S)Sc2c(-c3ccc(Br)cc3)[nH]c3ccc(C)cc23)CC1`, for which the GI50 amounted to 34 µM in the assay with Hs 683; 68 µM in assay [1]; 52 µM in the assay on SK-MEL-28 [2]; 37 µM with B16-F10; 37 µM in the assay with A549 [3].
With `Cc1cc(C)n(-c2c(-c3ccccc3)[nH]c3ccc(F)cc23)n1`, the GI50 with Hs 683 is 32 µM; in assay [1] it was 47 µM; with SK-MEL-28 [2], 31 µM; in the assay on B16-F10, 39 µM; in the assay on A549 [3], 29 µM.
For the compound `O=C(Nc1c(-c2ccccc2)[nH]c2ccccc12)C12CC3CC(CC(C3)C1)C2`, the GI50 in the assay with Hs 683 was 69 µM; in assay [1], 38 µM; with SK-MEL-28 [2], 67 µM; with B16-F10 it was 44 µM; in the assay with A549 [3], 38 µM.
For `Brc1ccc(/N=N/c2c(-c3ccc(Br)cc3)[nH]c3ccccc23)cc1`, the GI50 in the assay on Hs 683 was determined as 24 µM; in assay [1], 30 µM; with SK-MEL-28 [2] it was 31 µM; in the assay with B16-F10 it was 26 µM; in the assay on A549 [3], 23 µM.
On to `Clc1ccc(Sc2c(-c3ccc(Cl)cc3)[nH]c3ccc(Cl)cc23)cc1`, for which the GI50 in the assay on Hs 683 came to 31 µM; in assay [1], 28 µM; with SK-MEL-28 [2], 34 µM; in the assay on B16-F10 it was 28 µM; in the assay with A549 [3] it was 27 µM.
As for `COc1ccc2[nH]c(-c3ccc(Cl)cc3)c(Oc3ccc(Cl)cc3)c2c1`, the GI50 in the assay on Hs 683 amounted to 54 µM; in [1], 50 µM; with SK-MEL-28 [2], 57 µM; with B16-F10 it was 31 µM; in the assay with A549 [3], 59 µM.
On the same counts, the results for `O=C(CSCc1ccccc1)Nc1c(-c2ccccc2)[nH]c2ccccc12` are 33 µM, 47 µM, 30 µM, 35 µM and 30 µM.
The corresponding values for `Cc1cc(C)n(-c2c(-c3cccs3)[nH]c3ccc(Cl)cc23)n1` are 32 µM, 32 µM, 35 µM, 36 µM and 40 µM.
The corresponding values for `O=C(COc1ccc(Cl)cc1)Nc1c(-c2ccccc2)[nH]c2ccccc12` are 38 µM, 66 µM, 48 µM, 32 µM and 37 µM.
On to `Cc1ccc2[nH]c(-c3ccccc3)c(-n3nc(C)cc3C)c2c1`, for which the GI50 in the assay on Hs 683 was determined as 29 µM; in assay [1], 10 µM; in the assay with SK-MEL-28 [2] it was 33 µM; in the assay with B16-F10, 40 µM; in the assay on A549 [3], 26 µM.
On the same counts, the results for `Cc1cc(C)n(-c2c(-c3cccs3)[nH]c3ccccc23)n1` are 58 µM, 90 µM, 80 µM, 73 µM and 38 µM.
The corresponding values for `CCOC(=O)C1CCN(C(=S)Sc2c(-c3ccc(Br)cc3)[nH]c3ccc(Cl)cc23)CC1` are 36 µM, 33 µM, 39 µM, 21 µM and 34 µM.
Regarding `OC1CCCN(C(=S)Sc2c(-c3ccc(Br)cc3)[nH]c3ccc(Cl)cc23)C1` (stereo unspecified), the GI50 in the assay with Hs 683 is 31 µM; in [1] it was 39 µM; in the assay on SK-MEL-28 [2], 34 µM; in the assay on B16-F10, 37 µM; in the assay on A549 [3] it was 29 µM.
With `Fc1cccc2c(Oc3ccc(Cl)cc3)c(-c3ccc(Cl)cc3)[nH]c12`, the 50% growth inhibitory concentration (GI50) with Hs 683 amounted to 7 µM; in assay [1], 8 µM; in the assay on SK-MEL-28 [2], 8 µM; in the assay with B16-F10 it was 8 µM; in the assay on A549 [3], 7 µM.
With `Fc1ccc2[nH]c(-c3ccc(Cl)cc3)c(Oc3ccc(Cl)cc3)c2c1`, the GI50 turned out to be 22 µM in the assay on Hs 683; 20 µM in assay [1]; 24 µM with SK-MEL-28 [2]; 14 µM in the assay on B16-F10; 22 µM with A549 [3].
`OC1CCCN(C(=S)Sc2c(-c3ccc(Br)cc3)[nH]c3ccccc23)C1` (stereo unspecified): the 50% growth inhibitory concentration (GI50) in the assay on Hs 683 is 24 µM; in [1] it was 32 µM; in the assay with SK-MEL-28 [2], 28 µM; with B16-F10, 29 µM; in the assay on A549 [3], 24 µM.
